Values after ≈ are worked out from the molar mass of the structure shown. Values joined by “and” are separate entries in the source; they are usually repeats but may differ in a detail not shown here. Identical values can stand only once. “Also recorded” adds a separate entry of the source. Like-named read-outs stand apart in the source and are kept apart here.
How the values were obtained:
[1] = biological target: T1, human GluN2A (Homo sapiens, UniProt Q05586+Q12879); assay: Ca2+ fluorescence (fluo-8) assay in HEK cells expressing GluN2A; format: cell-based; conditions: for IC50: read-out: GluN2A IC50 (nM) ± SEM (n); for inhibition at 10 µM: HEK293, read-out: inhibition of GluN2A activity at 10 μM, 10 μM compound, HEK cell assay
T1 construct: host or cells: HEK293, tetracycline-induced
Description: HEK293 cells expressing the human GRIN1/GRIN2A genes (Chantest Catalog #: CT6120) were grown as an adherent monolayer at 37°C, 5% CO2 in DMEM/Ham’s F12 + 10% tetracycline-screened FBS (Hyclone SH3007.03T) and 500 μg/ml G418. […] To prepare the cells for an experiment, they were rinsed with Dulbecco’s PBS (Ca^2+ and Mg^2+ free) and detached from the flask with TrypLE™ Express (Life Technologies, Carlsbad, CA) using the manufacturer’s recommended methods. Cells collected from the flask were washed twice in Ca^2+/Mg^2+-free Hanks Balanced Salt Solution + 20 mM HEPES (HBSS), and counted and assessed for viability with trypan blue. Washed cells were then dye-loaded by resuspending in Fluo-8/AM calcium sensitive dye plus Component B (AAT Bioquest, Sunnyvale, CA) diluted in HBSS. […] The cell plates were centrifuged at 200 x g, for 2 minutes at 21°C, to create a monolayer of cells at the bottom of the wells.
To initiate an assay, 10 μl of test compound or buffer was added to each well of the cell plate and pre-incubated for 10 minutes in the dark. After 10 minutes, the cell plate was placed in a FDSS 6000 plate reader (Hamamatsu Photonics, Middlesex, NJ); baseline fluorescence readings were collected for 20 seconds. Next, 25 μl of agonist solution (3 μM glutamate, 3 μM glycine, and 1 mM Ca^2+ in HBSS) was added and the change in fluorescence was recorded for 3 minutes.
Results were calculated by computing the ratio of maximum fluorescence achieved during agonist-addition phase vs. baseline fluorescence.

[2] = biological target: T2, human GluN2B (Homo sapiens, UniProt Q05586+Q13224); assay: Ca2+ fluorescence (fluo-8) assay in HEK cells expressing GluN2B; format: cell-based; conditions: for inhibition at 10 µM: HEK293, 10 μM compound, negative = increase in Ca2+ response, read-out: GluN2B % Inhib. @ 10 μM ± SEM (n)
T2 construct: expressed in transfected cells; host or cells: HEK cells

[3] = biological target: T3, human GluN2D (Homo sapiens, UniProt O15399+Q05586); assay: Ca2+ fluorescence (fluo-8) assay in HEK cells expressing GluN2D; format: cell-based; conditions: for inhibition at 10 µM: HEK293, 10 μM compound, negative = increase in Ca2+ response, read-out: GluN2D % Inhib. @ 10 μM ± SEM (n)
T3 construct: expressed in transfected cells; host or cells: HEK cells

[4] = biological target: NMDA receptor (Rattus norvegicus, UniProt P35439+Q00959); assay: NMDA receptor-mediated fEPSPs in rat hippocampal slices (CA1, MEA); format: cell-based; conditions: 30 μM D-AP5
Source text: Multi-electrode arrays (MEA) technology was used in the recording of hippocampal slices from 3 to 4 week-old male and female Sprague- Dawley rats (Elevage Janvier, Le Genest St Isle, France).
The rats were sacrificed by fast decapitation, without previous anesthesia. The brain was quickly removed and soaked in ice-cold oxygenated buffer with the following composition in mM: KCl 2, NaH2PO4 1.2, MgCl2 7, CaCl2 0.5, NaHCO3 26, glucose 11, and saccharose 250. […] Slice were placed in the center of a 3D-MEA to cover the electrode field (1.4 mm^2) and then immobilized with a netting ballast. […] NBQX (10 μM) was added to inhibit AMPA receptors. The bath was ground connected with a 1 M NaCl-Agar bridge.
All data were recorded with a MEA set-up from Multi Channel Systems MCS GmbH (Reutlingen, Germany) composed of a 4-channel stimulus generator and a 60-channel amplifier head-stage connected to a 60-channel A/D card. […]
Following visual observation through a CCD camera, one of the electrodes identified in the CA3 field (at CA3/CA1 border) was disconnected from its amplifier and used to stimulate Schaeffer collaterals. […] Simultaneous evoked field potentials were recorded from 3 to 6 electrodes in the CA1 stratum radiatum region, corresponding to the physiological propagation of the stimulus along the Schaffer collateral pathway. […]

[5] = biological target: T4, 5-HT1B (Rattus norvegicus, UniProt P28564); assay: CEREP-80 panel ligand binding, 5-HT1B; conditions: read-out: inhibition of 5-HT1B antagonist binding
T4 construct: CEREP (panel CEREP-80)

[6] = biological target: T5, 5-HT2A (Homo sapiens, UniProt P28223); assay: CEREP-80 panel ligand binding, 5-HT2A; conditions: read-out: inhibition of 5-HT2A agonist binding
T5 construct: CEREP (panel CEREP-80)

[7] = biological target: T6, EP4 (Homo sapiens, UniProt P35408); assay: CEREP-80 panel ligand binding, EP4; conditions: read-out: inhibition of EP4 agonist binding
T6 construct: CEREP (panel CEREP-80)

[8] = tested on: panel of receptors and enzymes relevant to CNS pharmacology (CEREP-80); assay: CEREP-80 panel ligand binding, remainder of the panel; conditions: 1 μM
Source text: […]. […] […]

[9] = tested on: AMPA receptor; assay: AMPA receptor-mediated synaptic currents of pyramidal neurons in mouse visual cortex slices; format: cell-based; conditions: in the presence of 50 μM compound; controls 118±16 pA
Description: […]. […] […].
Wild-type (WT) mice and GRIN2A knock-out (KO) male mice were bred in house at Boston Children’s Hospital. The GRIN2A-KO colony was derived from mice originally obtained from M. Mishina (1995, University of Tokyo, Japan). All procedures using these mice were approved by the Boston Children’s Hospital Institutional Animal Care and Use Committee. Methods used were previously described in [30] and are summarized below.
Coronal visual cortical slices ([…]) were prepared from postnatal day (P)22–31 male mice following decapitation under isoflurane anesthesia. […]
Layer 2/3 pyramidal neurons were selected based on morphology under infrared differential interference contrast microscopy and their identity confirmed from a brief train of action potentials recorded prior to initiating voltage-clamp recordings. […] All data were acquired and analyzed using custom- made procedures in Igor-Pro Software (WaveMetrics, Lake Oswego, Oregon).
To estimate the relative contribution of NMDA and AMPA receptors to the synaptic current, the amplitude was measured at the time of the peak current at -100 mV for the AMPA receptor-mediated current and at the time point after the current at -100 mV had decayed to less than 5% of its peak amplitude for the NMDA receptor-mediated current. […]

[10] = Kinetic solubility; format: physicochemical; conditions: phosphate buffered saline, aqueous buffer, kinetic from dmso stock; in solution by HPLC after dissolution in DMSO and addition to saline
Description: Compounds were prepared as stock solutions at 20 mM in DMSO and diluted in DMSO to give a range of test concentrations 100-fold greater than final. Compounds were diluted 100-fold into phosphate buffered saline and incubated during mild shaking for 90 min at room temperature. Solutions were filtered through multiscreen solubility filter plate and the filtrate analyzed for compound concentration by HPLC-UV/PDA or LC-MS/MS.

[11] = Stability in pooled human liver microsomes; format: in vitro ADME; conditions: pH 7.4, 1 μM compound, read-out: HLM t½
Description: Human liver microsomes were prepared from pooled cryopreserved human hepatocytes (HEP10™, catalog number HMCS10, lot # HuE106, Life Technologies Corporation, Grand Island, NY). According to the vendor, the liver cells from lot HuE106 were derived from tissue obtained from accredited institutions. Consent was obtained by these institutions from the donors or the donor’s legal next of kin, for use of the tissue and its derivatives for research purposes. Microsomes were diluted into 66.7 mM potassium phosphate buffer (pH 7.4) to an approximate concentration of 0.5 mg/mL of microsomal protein. Test compounds (1 μM) were pre-incubated with the microsomes for 5 min at 37°C and then the reaction initiated by addition of […]. After different times up to 30 min, the reactions were quenched, clarified by centrifugation and remaining compound quantified by LC-MS/MS.

[12] = tested on: MDR1; assay: in vitro; format: in vitro ADME; conditions: dog, MDCK-MDR1; for Papp A→B: compound added on apical side (A-B), read-out: MDCK A-B permeability; for Papp B→A: compound added on basal side (B-A), read-out: MDCK B-A permeability
Description: MDCK cells transfected with MDR1 were maintained in monolayer culture for 3–4 days in 24-well transporter plates. Cultures with average TEER values of 600–800 Ohm x cm^2 were utilized for experimentation. Test compound was added to either the apical or basal membrane chamber and then efflux across the monolayer was monitored by quantifying compound with LC-MS/MS.

[13] = tested on: uninjected oocytes; assay: Endogenous currents in control (uninjected) oocytes; format: cell-based, Xenopus; conditions: concentrations up to 10 μM
Description: The cells were then gently aspirated with a Pasteur pipette to remove the follicular tissue; this was followed by washing three times with OR-2 to remove all traces of collagenase. The oocytes were then washed in ND-96 (96 mM NaCl, 2 mM KCl, 1.8 mM CaCl2, 1 mM MgCl2, 5 mM HEPES, 50 ng/L gentamycin, 100 units/ml penicillin and 100 μg/ml streptomycin; pH 7.6) three times and this was followed by incubation in ND-96 at room temperature with mild agitation for 15 minutes; subsequently they were stored for at least 2 hours at 16°C before sorting and selection for injection. Oocytes selected for injection were incubated overnight in ND-96 at 16°C.
Electrodes were filled with 3 M KCl and had resistances that ranged from 0.2–1 MΩ. All measurements were made at a holding potential of -40 mV. Cells were continuously perfused with oocyte recording solution containing 90 mM NaCl, 1 mM KCl, 0.5 mM BaCl2, and 10 mM HEPES (Ph 7.4). […] Co-agonists were applied until a plateau was reached, and test compounds were then added in the continued presence of co-agonists until a new plateau was reached. […] Fraction of current remaining was calculated as [(current in presence of test compound–background current) / (co-agonist current–background current)] and IC50 values were computed using Prism 6.0 (Graphpad).

[14] = tested on: NMDA receptor (NMDA + glycine evoked currents); assay: Whole-cell manual patch clamp of rat cortical neurons in primary culture; format: cell-based; conditions: 10 μM compound; NMDA 100 μM + glycine 10 μM; +40 mV; mean ± SEM
Source text: Cortical neurons isolated from E18 rat embryos and cultured for two weeks were examined in whole-cell manual patch clamp experiments.
Cryopreserved E-18 rat cortical neurons (GIBCO A10840-02) were purchased from Life Technologies Italia (Monza, Italy).
Cortical neurons were thawed and plated at 5x10^4 or 10x10^4 cells/well in 35 x 100 mm tissue culture dishes containing poly-D-lysine treated glass coverslips, and maintained in the media and conditions recommended by the manufacturer for 13–15 days. […] Glycine (10 μM) was added in the extracellular solution or in the NMDA solution. Cells were patch clamped in the whole-cell configuration with a holding potential of -70 mV stepping once every minute to +20 or +40 mV for 10 s. Starting 1.5 s after each voltage step, 100 μM NMDA plus 10 μM glycine was applied using rapid local perfusion (RSC-200, Bio-Logic Science Instruments, Claix, France). Currents were evaluated at peak during the NMDA application, and current inhibition was computed using Prism software (GraphPad) once steady state was achieved.

[15] = inhibition of Ca2+ response, HEK cells, glutamate and glycine 3 μM each
[16] = inhibition of Ca2+ response, HEK cells, glutamate and glycine 3 μM each, read-out: GluN2B IC50 (nM) ± SEM (n)
[17] = inhibition of Ca2+ response, HEK cells, glutamate and glycine 3 μM each, read-out: GluN2D IC50 (nM) ± SEM (n)

T1 sequence (Q12879 23-1464, other chains not shown): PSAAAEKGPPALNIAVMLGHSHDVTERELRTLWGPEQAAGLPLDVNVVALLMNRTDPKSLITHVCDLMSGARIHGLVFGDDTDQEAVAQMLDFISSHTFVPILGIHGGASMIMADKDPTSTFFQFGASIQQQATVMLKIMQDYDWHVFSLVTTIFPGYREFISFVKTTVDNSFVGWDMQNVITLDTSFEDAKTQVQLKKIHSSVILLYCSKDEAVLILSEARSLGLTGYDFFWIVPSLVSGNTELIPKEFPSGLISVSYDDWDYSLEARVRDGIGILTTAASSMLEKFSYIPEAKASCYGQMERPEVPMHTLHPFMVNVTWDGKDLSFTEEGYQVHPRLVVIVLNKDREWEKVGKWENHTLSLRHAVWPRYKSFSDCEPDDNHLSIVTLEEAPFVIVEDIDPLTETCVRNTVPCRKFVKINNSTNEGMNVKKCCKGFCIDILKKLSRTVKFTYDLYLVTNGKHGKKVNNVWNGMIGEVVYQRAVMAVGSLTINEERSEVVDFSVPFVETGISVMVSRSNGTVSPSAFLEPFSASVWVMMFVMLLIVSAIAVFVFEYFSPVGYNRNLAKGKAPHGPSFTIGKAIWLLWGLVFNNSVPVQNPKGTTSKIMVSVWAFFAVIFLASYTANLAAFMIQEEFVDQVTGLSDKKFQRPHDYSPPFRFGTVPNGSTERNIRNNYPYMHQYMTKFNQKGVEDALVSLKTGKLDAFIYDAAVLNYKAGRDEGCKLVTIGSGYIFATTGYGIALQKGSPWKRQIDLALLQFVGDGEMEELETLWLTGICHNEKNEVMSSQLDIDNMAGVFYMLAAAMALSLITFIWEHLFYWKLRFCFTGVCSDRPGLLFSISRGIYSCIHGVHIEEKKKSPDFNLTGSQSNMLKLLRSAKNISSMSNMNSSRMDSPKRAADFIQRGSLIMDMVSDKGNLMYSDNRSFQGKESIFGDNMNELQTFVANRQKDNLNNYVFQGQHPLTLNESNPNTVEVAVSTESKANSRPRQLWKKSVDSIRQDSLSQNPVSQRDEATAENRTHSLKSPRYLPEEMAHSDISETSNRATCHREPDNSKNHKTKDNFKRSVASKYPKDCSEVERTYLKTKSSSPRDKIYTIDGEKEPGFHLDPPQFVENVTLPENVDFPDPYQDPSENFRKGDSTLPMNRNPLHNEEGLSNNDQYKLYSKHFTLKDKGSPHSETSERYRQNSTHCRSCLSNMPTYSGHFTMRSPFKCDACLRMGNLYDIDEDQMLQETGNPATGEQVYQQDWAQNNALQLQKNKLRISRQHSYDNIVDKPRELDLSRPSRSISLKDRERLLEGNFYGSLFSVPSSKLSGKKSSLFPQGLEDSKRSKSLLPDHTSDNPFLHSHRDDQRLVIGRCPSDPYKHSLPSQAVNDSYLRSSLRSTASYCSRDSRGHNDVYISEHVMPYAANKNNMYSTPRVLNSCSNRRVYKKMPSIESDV
T2 sequence (Q13224 27-1484, other chains not shown): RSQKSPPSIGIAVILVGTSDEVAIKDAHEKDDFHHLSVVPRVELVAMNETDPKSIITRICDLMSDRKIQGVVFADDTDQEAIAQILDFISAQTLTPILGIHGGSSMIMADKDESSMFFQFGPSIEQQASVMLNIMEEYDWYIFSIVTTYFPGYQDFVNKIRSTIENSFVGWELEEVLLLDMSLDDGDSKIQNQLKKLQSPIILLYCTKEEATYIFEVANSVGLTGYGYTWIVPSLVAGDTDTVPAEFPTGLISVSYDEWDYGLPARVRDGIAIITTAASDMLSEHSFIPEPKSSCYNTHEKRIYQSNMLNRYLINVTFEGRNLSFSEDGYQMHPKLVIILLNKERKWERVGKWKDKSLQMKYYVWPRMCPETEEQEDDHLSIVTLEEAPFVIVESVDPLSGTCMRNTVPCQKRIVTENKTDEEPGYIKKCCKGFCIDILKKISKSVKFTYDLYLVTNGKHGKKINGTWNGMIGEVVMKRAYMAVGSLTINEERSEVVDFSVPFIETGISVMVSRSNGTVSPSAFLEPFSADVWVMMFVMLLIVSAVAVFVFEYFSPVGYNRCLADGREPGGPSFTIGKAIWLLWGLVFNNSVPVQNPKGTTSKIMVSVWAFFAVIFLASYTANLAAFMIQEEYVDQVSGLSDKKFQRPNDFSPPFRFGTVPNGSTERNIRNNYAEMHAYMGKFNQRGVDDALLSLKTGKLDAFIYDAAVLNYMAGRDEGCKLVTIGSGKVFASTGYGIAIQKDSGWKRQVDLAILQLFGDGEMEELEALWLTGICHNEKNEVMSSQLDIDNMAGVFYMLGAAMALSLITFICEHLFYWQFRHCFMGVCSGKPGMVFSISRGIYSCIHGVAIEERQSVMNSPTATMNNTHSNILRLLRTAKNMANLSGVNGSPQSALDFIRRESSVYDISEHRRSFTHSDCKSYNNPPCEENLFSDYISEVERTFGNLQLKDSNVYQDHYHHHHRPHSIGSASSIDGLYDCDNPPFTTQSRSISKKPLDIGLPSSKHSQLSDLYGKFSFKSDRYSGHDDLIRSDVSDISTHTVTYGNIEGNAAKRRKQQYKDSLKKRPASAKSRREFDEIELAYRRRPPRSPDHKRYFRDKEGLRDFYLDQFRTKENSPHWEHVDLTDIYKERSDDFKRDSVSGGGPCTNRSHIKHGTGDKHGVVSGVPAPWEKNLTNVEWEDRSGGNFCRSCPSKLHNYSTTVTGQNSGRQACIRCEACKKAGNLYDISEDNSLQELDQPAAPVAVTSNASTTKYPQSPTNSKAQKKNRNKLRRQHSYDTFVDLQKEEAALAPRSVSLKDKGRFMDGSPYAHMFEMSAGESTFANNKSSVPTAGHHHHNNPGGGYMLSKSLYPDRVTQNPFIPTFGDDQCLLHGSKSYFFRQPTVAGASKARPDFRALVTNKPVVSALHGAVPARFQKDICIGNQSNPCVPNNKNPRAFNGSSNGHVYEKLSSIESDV
T3 sequence (O15399 28-1336, other chains not shown): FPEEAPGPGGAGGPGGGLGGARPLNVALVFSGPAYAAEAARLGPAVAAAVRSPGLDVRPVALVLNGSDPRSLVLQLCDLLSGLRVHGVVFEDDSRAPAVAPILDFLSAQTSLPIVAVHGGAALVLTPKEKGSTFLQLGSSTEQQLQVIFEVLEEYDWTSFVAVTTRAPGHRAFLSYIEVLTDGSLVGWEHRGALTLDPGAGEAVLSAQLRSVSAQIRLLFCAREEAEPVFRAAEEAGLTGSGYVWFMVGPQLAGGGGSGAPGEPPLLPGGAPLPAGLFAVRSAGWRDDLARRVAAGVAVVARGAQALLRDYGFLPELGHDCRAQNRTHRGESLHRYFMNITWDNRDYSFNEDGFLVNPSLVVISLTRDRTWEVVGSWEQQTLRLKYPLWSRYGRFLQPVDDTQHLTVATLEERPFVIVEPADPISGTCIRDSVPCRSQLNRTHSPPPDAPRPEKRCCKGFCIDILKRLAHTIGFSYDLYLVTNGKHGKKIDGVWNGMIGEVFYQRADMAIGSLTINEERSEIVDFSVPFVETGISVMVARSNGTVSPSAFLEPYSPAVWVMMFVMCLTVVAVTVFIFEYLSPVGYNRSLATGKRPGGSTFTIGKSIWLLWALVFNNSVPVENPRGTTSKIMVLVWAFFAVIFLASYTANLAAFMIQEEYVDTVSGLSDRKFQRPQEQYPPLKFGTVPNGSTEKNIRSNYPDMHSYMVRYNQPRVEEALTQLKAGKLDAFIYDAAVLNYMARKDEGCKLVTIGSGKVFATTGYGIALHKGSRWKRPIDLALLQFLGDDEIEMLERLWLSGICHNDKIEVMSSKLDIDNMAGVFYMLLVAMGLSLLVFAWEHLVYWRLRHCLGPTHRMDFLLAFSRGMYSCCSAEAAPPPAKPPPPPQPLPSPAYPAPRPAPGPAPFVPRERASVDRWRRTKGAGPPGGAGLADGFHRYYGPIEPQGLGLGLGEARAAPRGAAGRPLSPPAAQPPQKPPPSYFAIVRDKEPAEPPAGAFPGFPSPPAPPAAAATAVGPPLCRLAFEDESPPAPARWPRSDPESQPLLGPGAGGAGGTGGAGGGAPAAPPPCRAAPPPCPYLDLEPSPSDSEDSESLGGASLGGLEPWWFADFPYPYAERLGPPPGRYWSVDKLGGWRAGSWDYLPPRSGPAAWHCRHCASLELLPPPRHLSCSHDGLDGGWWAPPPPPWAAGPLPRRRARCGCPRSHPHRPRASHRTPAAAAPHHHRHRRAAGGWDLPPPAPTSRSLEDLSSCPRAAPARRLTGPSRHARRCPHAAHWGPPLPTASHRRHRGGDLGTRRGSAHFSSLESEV
T6 sequence (P35408 whole entry): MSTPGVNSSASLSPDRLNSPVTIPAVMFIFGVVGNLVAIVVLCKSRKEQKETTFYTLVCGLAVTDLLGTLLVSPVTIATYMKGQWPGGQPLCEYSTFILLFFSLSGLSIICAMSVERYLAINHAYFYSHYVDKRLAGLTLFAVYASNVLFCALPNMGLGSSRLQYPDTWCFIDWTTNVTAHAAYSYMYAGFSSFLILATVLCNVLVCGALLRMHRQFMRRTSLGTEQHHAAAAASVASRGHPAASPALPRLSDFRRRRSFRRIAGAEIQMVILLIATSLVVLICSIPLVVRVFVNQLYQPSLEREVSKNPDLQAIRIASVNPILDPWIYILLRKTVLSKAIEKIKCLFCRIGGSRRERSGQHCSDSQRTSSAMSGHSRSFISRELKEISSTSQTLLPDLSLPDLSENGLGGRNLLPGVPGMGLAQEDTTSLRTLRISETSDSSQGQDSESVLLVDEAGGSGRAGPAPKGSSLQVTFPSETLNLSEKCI
T4 sequence (P28564 whole entry): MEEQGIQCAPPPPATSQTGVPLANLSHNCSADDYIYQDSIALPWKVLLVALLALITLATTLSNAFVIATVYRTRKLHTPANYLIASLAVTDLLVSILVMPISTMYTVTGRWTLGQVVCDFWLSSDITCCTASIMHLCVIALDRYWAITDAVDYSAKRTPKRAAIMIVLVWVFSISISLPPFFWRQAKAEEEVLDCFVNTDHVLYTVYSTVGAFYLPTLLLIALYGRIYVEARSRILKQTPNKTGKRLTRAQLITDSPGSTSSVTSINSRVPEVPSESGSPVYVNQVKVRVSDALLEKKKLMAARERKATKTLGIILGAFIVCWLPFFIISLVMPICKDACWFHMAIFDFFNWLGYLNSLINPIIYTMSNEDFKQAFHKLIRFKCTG

For `O=C(O)c1cc(=O)c2c(Cl)cc(Cl)cc2[nH]1` [5,7-DCKA, reference compound], the IC50 [1, 15] was 1170 ± 230 nM, the IC50 [2, 16] was 8400 ± 1400 nM and the IC50 [3, 17] was > 10000 nM.

Work on `N[C@@H](Cc1ccccn1)c1ccccc1` [ARL-15896, reference compound] yielded an IC50 [2, 16] of 510000 nM and an IC50 [3, 17] of 25000 nM.

In the case of `C[C@@H]([C@@H](O)c1ccc(O)cc1)N1CCC(O)(c2ccccc2)CC1` [CP-101,606, reference compound], the IC50 [1, 15] is reported as > 10000 nM and the IC50 [3, 17] is reported as > 10000 nM.

In the case of `NC(CCCP(=O)(O)O)C(=O)O` [D-AP5], the “block of fEPSPs by D-AP5 at the conclusion of each experiment” value [4] is reported as “completely blocked”.

For `C[C@]12N[C@H](Cc3ccccc31)c1ccccc12` [MK-801, reference compound], the IC50 [2] was 75 ± 4 nM and the IC50 [3] was 87 ± 3 nM.

`Cc1ncc(CNC(=O)c2cnc(CNS(=O)(=O)c3ccc(F)c(Cl)c3)cn2)s1` [MPX-004, 5-(((3-chloro-4-fluorophenyl)sulfonamido)methyl)-N-((2-methylthiazol-5-yl)methyl)pyrazine-2-carboxamide] gave an inhibition at 1 µM [5] of 35%, an inhibition at 1 µM [6] of 31% and an inhibition at 1 µM [7] of 27%. The “effects on binding of ligands in the remainder of the panel” value [8] was “less than 25%”, the “AMPA receptor-mediated synaptic currents” value [9] was 118±21 pA and the solubility at 90 min [10] was 16 µM (≈ 7.29 µg/mL). For the same molecule, the half-life at 1 μM [11] was 53 min, the Papp A→B [12] was 173 nm/s and the Papp B→A [12] was 661 nm/s.

For `Cc1ncc(CNC(=O)c2cnc(CNS(=O)(=O)c3ccc(F)c(F)c3)c(C)n2)s1` [MPX-007], the “inhibition of currents in control (uninjected) oocytes” value [13] was “no effect; also recorded: No inhibition”, the solubility at 90 min [10] was 68 µM (≈ 30.8 µg/mL) and the half-life at 1 μM [11] was 63 min. The Papp A→B [12] was 142 nm/s and the Papp B→A [12] was 768 nm/s.

`O=C(O)[C@@H]1[C@H](C(=O)O)NCCN1C(=O)c1ccc2c(ccc3ccccc32)c1` [PPDA, reference compound] gave an IC50 [1, 15] of 4860 ± 960 nM, an IC50 [2, 16] of 8490 ± 1000 nM and an IC50 [3, 17] of 34800 nM.

For `O=C(NNC(=O)c1ccc(CNS(=O)(=O)c2ccc(F)c(Cl)c2)cc1)c1ccccc1` [TCN-201, 3-chloro-4-fluoro-N-[4-[[2-(phenylcarbonyl)hydrazino]carbonyl]benzyl]benzenesulfonamide, reference compound], the solubility at 90 min [10] was 8 µM (≈ 3.7 µg/mL), the half-life at 1 μM [11] was 19 min and the Papp A→B [12] was 75 nm/s. The Papp B→A [12] was 589 nm/s.

In the case of `Cc1ncc(CNC(=O)c2ccc(CNS(=O)(=O)c3ccc(F)c(Cl)c3)cc2)s1` [compound 2], the inhibition at 10 µM [1] is reported as > 95%, the IC50 [1] is reported as 398 ± 90 nM and the inhibition at 10 µM [2] is reported as 4 ± 1%. The inhibition at 10 µM [3] was -6 ± 2%.

With `Cc1ncc(CNC(=O)c2ccc(CNS(=O)(=O)c3ccc(F)c(Cl)c3)cn2)s1` [compound 3] the inhibition at 10 µM [1] was > 95%, the IC50 [1] was 75 ± 13 nM and the inhibition at 10 µM [2] was 1 ± 1%. The inhibition at 10 µM [3] was -6 ± 2%.

In the case of `Cc1ncc(CNC(=O)c2cnc(CNS(=O)(=O)c3ccc(F)c(F)c3)cn2)s1` [compound 5], the inhibition at 10 µM [1] is reported as > 95%, the IC50 [1] is reported as 116 ± 22 nM and the inhibition at 10 µM [2] is reported as -8 ± 2%. The inhibition at 10 µM [3] was -10 ± 5%.

For `Cc1ncc(CNC(=O)c2ccc(CNS(=O)(=O)c3ccc(F)c(F)c3)cn2)s1` [compound 6], the inhibition at 10 µM [1] was > 95%, the IC50 [1] was 158 ± 30 nM and the inhibition at 10 µM [2] was -1 ± 1%. For the same molecule, the inhibition at 10 µM [3] was -13 ± 10%.

With `Cc1ncc(CNC(=O)c2cnc(CNS(=O)(=O)c3ccc(F)c(Cl)c3)c(C)n2)s1` [compound 7] the inhibition at 10 µM [1] was > 95%, the IC50 [1] was 18 ± 2 nM and the inhibition at 10 µM [2] was -8 ± 1%. It also gave an inhibition at 10 µM [3] of -1 ± 2%.

For `Cc1ncc(CNC(=O)c2cnc(CNS(=O)(=O)c3ccc(Cl)c(F)c3)c(C)n2)s1` [compound 8], the inhibition at 10 µM [1] was > 95%, the IC50 [1] was 971 ± 242 nM and the inhibition at 10 µM [2] was -7 ± 2%. The inhibition at 10 µM [3] was 6 ± 6%.

In the case of `Cc1ncc(CNC(=O)c2cnc(CN(C)S(=O)(=O)c3ccc(F)c(Cl)c3)c(C)n2)s1` [compound 10], the inhibition at 10 µM [1] is reported as > 95% and the IC50 [1] is reported as 242 ± 61 nM.

With Ro 25–6981 the “block of NMDA + glycine evoked currents in rat cortical neurons” value [14] was 72 ± 5% and ~ 70%.
